Assay results as given in PubChem BioAssay (NCI).
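GI50 marks 50% less growth. TGI is the concentration that stops growth completely.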

Assays:
Experiment in all cases: growth of human tumour cells (NCI), 384-well format; in the data active = GI50 below about 0.43 µM; inactive = the rest
786-0 renal = test system: 786-0 renal
A498 renal = test system: A498 renal
A549 NSCLC = test system: A549 NSCLC
ACHN renal = test system: ACHN renal
BT-549 breast = test system: BT-549 breast
CAKI-1 renal = test system: CAKI-1 renal
CCRF-CEM leukemia = test system: CCRF-CEM leukemia
COLO 205 colon = test system: COLO 205 colon
DU-145 prostate = test system: DU-145 prostate
EKVX NSCLC = test system: EKVX NSCLC
HCC-2998 colon = test system: HCC-2998 colon
HCT-15 colon = test system: HCT-15 colon
HL-60(TB) leukemia = test system: HL-60(TB) leukemia
HOP-62 NSCLC = test system: HOP-62 NSCLC
HOP-92 NSCLC = test system: HOP-92 NSCLC
HS 578T breast = test system: HS 578T breast
HT29 colon = test system: HT29 colon
K-562 leukemia = test system: K-562 leukemia
KM12 colon = test system: KM12 colon
LOX IMVI melanoma = test system: LOX IMVI melanoma
M14 melanoma = test system: M14 melanoma
MALME-3M melanoma = test system: MALME-3M melanoma
MCF7 breast = test system: MCF7 breast
MDA-MB-231 breast = test system: MDA-MB-231 breast
MDA-MB-435 melanoma = test system: MDA-MB-435 melanoma
MDA-MB-468 breast = test system: MDA-MB-468 breast
MOLT-4 leukemia = test system: MOLT-4 leukemia
NCI-H226 lung = test system: NCI-H226 lung
NCI-H23 lung = test system: NCI-H23 lung
NCI-H322M lung = test system: NCI-H322M lung
NCI-H460 NSCLC = test system: NCI-H460 NSCLC
NCI-H522 lung = test system: NCI-H522 lung
NCI/ADR-RES ovarian = test system: NCI/ADR-RES ovarian
OVCAR-3 ovarian = test system: OVCAR-3 ovarian
OVCAR-4 ovarian = test system: OVCAR-4 ovarian
OVCAR-5 ovarian = test system: OVCAR-5 ovarian
OVCAR-8 ovarian = test system: OVCAR-8 ovarian
PC-3 prostate = test system: PC-3 prostate
RPMI-8226 leukemia = test system: RPMI-8226 leukemia
SF-268 CNS = test system: SF-268 CNS
SF-295 CNS = test system: SF-295 CNS
SF-539 CNS = test system: SF-539 CNS
SK-MEL-28 melanoma = test system: SK-MEL-28 melanoma
SK-MEL-5 melanoma = test system: SK-MEL-5 melanoma
SK-OV-3 ovarian = test system: SK-OV-3 ovarian
SN12C renal = test system: SN12C renal
SNB-19 CNS = test system: SNB-19 CNS
SNB-75 CNS = test system: SNB-75 CNS
SR leukemia = test system: SR leukemia
SW-620 colon = test system: SW-620 colon
T-47D breast = test system: T-47D breast
TK-10 renal = test system: TK-10 renal
U251 glioblastoma = test system: U251 glioblastoma
UACC-257 melanoma = test system: UACC-257 melanoma
UACC-62 melanoma = test system: UACC-62 melanoma
UO-31 renal = test system: UO-31 renal
IGROV1 ovarian = test system: IGROV1 ovarian
RXF 393 renal = test system: RXF 393 renal

S=C(NCc1ccc2c(c1)OCO2)N1CCN(c2ncnc3c2oc2ccccc23)CC1
2.69 µM: TGI (SK-MEL-5 melanoma)
inactive: GI50 ([…]-0 renal) 80.6 µM | GI50 (A498 renal) 2.95 µM | GI50 (A549 NSCLC) 9.14 µM | GI50 (ACHN renal) > 100 µM | GI50 (BT-549 breast) 7.53 µM | GI50 (CAKI-1 renal) > 100 µM | GI50 (CCRF-CEM leukemia) 0.917 µM | GI50 (COLO 205 colon) > 100 µM | GI50 (DU-145 prostate) > 100 µM | GI50 (EKVX NSCLC) 6.12 µM | GI50 (HCC-2998 colon) 21.7 µM | GI50 (HCT-15 colon) 33.2 µM | GI50 (HL-60(TB) leukemia) 3.18 µM | GI50 (HOP-62 NSCLC) 2.78 µM | GI50 (HOP-92 NSCLC) 62.7 µM | GI50 (HS 578T breast) 23.2 µM | GI50 (HT29 colon) > 100 µM | GI50 (K-562 leukemia) 1.62 µM | GI50 (KM12 colon) > 100 µM | GI50 (LOX IMVI melanoma) 3.02 µM | GI50 (M14 melanoma) > 100 µM | GI50 (MALME-3M melanoma) > 100 µM | GI50 (MCF7 breast) 3.01 µM | GI50 (MDA-MB-231 breast) 6.31 µM | GI50 (MDA-MB-435 melanoma) 72.4 µM | GI50 (MDA-MB-468 breast) 0.673 µM | GI50 (MOLT-4 leukemia) 1.48 µM | GI50 (NCI-H226 lung) 23.6 µM | GI50 (NCI-H23 lung) 1.87 µM | GI50 (NCI-H322M lung) 2.55 µM | GI50 (NCI-H460 NSCLC) 2.94 µM | GI50 (NCI-H522 lung) 35.4 µM | GI50 (NCI/ADR-RES ovarian) 1.36 µM | GI50 (OVCAR-3 ovarian) > 100 µM | GI50 (OVCAR-4 ovarian) 5.77 µM | GI50 (OVCAR-5 ovarian) > 100 µM | GI50 (OVCAR-8 ovarian) 3.04 µM | GI50 (PC-3 prostate) 67.6 µM | GI50 (RPMI-8226 leukemia) 1.79 µM | GI50 (SF-268 CNS) > 100 µM | GI50 (SF-295 CNS) > 100 µM | GI50 (SF-539 CNS) > 100 µM | GI50 (SK-MEL-28 melanoma) > 100 µM | GI50 (SK-MEL-5 melanoma) 1.06 µM | GI50 (SK-OV-3 ovarian) 6.63 µM | GI50 (SN12C renal) > 100 µM | GI50 (SNB-19 CNS) > 100 µM | GI50 (SNB-75 CNS) > 100 µM | GI50 (SR leukemia) 0.49 µM | GI50 (SW-620 colon) > 100 µM | GI50 (T-47D breast) 0.593 µM | GI50 (TK-10 renal) 71.6 µM | GI50 (U251 glioblastoma) 8.72 µM | GI50 (UACC-257 melanoma) 6.23 µM | GI50 (UACC-62 melanoma) > 100 µM | GI50 (UO-31 renal) 15.9 µM
89.1 µM: TGI (RPMI-8226 leukemia)
30.8 µM: TGI (HL-60(TB) leukemia)
3.63 µM: TGI (CCRF-CEM leukemia)
4.8 µM: TGI (MOLT-4 leukemia)
3.32 µM: TGI (MDA-MB-468 breast)
8.23 µM: TGI (T-47D breast)
89 µM: TGI (UO-31 renal)
6.54 µM: TGI (NCI/ADR-RES ovarian)
> 100 µM: TGI (786-0 renal) | TGI (A498 renal) | TGI (A549 NSCLC) | TGI (ACHN renal) | TGI (BT-549 breast) | TGI (CAKI-1 renal) | TGI (COLO 205 colon) | TGI (DU-145 prostate) | TGI (EKVX NSCLC) | TGI (HCC-2998 colon) | TGI (HCT-15 colon) | TGI (HOP-62 NSCLC) | TGI (HOP-92 NSCLC) | TGI (HS 578T breast) | TGI (HT29 colon) | TGI (K-562 leukemia) | TGI (KM12 colon) | TGI (LOX IMVI melanoma) | TGI (M14 melanoma) | TGI (MALME-3M melanoma) | TGI (MCF7 breast) | TGI (MDA-MB-231 breast) | TGI (MDA-MB-435 melanoma) | TGI (NCI-H226 lung) | TGI (NCI-H23 lung) | TGI (NCI-H322M lung) | TGI (NCI-H522 lung) | TGI (OVCAR-3 ovarian) | TGI (OVCAR-4 ovarian) | TGI (OVCAR-5 ovarian) | TGI (OVCAR-8 ovarian) | TGI (PC-3 prostate) | TGI (SF-268 CNS) | TGI (SF-295 CNS) | TGI (SF-539 CNS) | TGI (SK-MEL-28 melanoma) | TGI (SK-OV-3 ovarian) | TGI (SN12C renal) | TGI (SNB-19 CNS) | TGI (SNB-75 CNS) | TGI (SW-620 colon) | TGI (TK-10 renal) | TGI (U251 glioblastoma) | TGI (UACC-257 melanoma) | TGI (UACC-62 melanoma)
9.25 µM: TGI (NCI-H460 NSCLC)
3.36 µM: TGI (SR leukemia)

C[C@@H](NC(=O)c1ccc(F)cc1)c1ccc2c(c1)CCN2C(=O)C1CCOCC1
> 100 µM: TGI (786-0 renal) | TGI (A498 renal) | TGI (A549 NSCLC) | TGI (ACHN renal) | TGI (BT-549 breast) | TGI (CAKI-1 renal) | TGI (CCRF-CEM leukemia) | TGI (COLO 205 colon) | TGI (DU-145 prostate) | TGI (EKVX NSCLC) | TGI (HCC-2998 colon) | TGI (HCT-15 colon) | TGI (HL-60(TB) leukemia) | TGI (HOP-62 NSCLC) | TGI (HOP-92 NSCLC) | TGI (HS 578T breast) | TGI (HT29 colon) | TGI (IGROV1 ovarian) | TGI (K-562 leukemia) | TGI (KM12 colon) | TGI (LOX IMVI melanoma) | TGI (M14 melanoma) | TGI (MALME-3M melanoma) | TGI (MCF7 breast) | TGI (MDA-MB-231 breast) | TGI (MDA-MB-435 melanoma) | TGI (MDA-MB-468 breast) | TGI (MOLT-4 leukemia) | TGI (NCI-H226 lung) | TGI (NCI-H23 lung) | TGI (NCI-H322M lung) | TGI (NCI-H460 NSCLC) | TGI (NCI-H522 lung) | TGI (NCI/ADR-RES ovarian) | TGI (OVCAR-3 ovarian) | TGI (OVCAR-4 ovarian) | TGI (OVCAR-5 ovarian) | TGI (OVCAR-8 ovarian) | TGI (PC-3 prostate) | TGI (RPMI-8226 leukemia) | TGI (RXF 393 renal) | TGI (SF-268 CNS) | TGI (SF-295 CNS) | TGI (SF-539 CNS) | TGI (SK-MEL-28 melanoma) | TGI (SK-MEL-5 melanoma) | TGI (SK-OV-3 ovarian) | TGI (SN12C renal) | TGI (SNB-19 CNS) | TGI (SNB-75 CNS) | TGI (SR leukemia) | TGI (SW-620 colon) | TGI (T-47D breast) | TGI (TK-10 renal) | TGI (UACC-257 melanoma) | TGI (UACC-62 melanoma) | TGI (UO-31 renal)
inactive: GI50 ([…]-0 renal) > 100 µM | GI50 (A498 renal) > 100 µM | GI50 (A549 NSCLC) > 100 µM | GI50 (ACHN renal) > 100 µM | GI50 (BT-549 breast) > 100 µM | GI50 (CAKI-1 renal) > 100 µM | GI50 (CCRF-CEM leukemia) > 100 µM | GI50 (COLO 205 colon) > 100 µM | GI50 (DU-145 prostate) > 100 µM | GI50 (EKVX NSCLC) > 100 µM | GI50 (HCC-2998 colon) > 100 µM | GI50 (HCT-15 colon) > 100 µM | GI50 (HL-60(TB) leukemia) > 100 µM | GI50 (HOP-62 NSCLC) > 100 µM | GI50 (HOP-92 NSCLC) > 100 µM | GI50 (HS 578T breast) > 100 µM | GI50 (HT29 colon) > 100 µM | GI50 (IGROV1 ovarian) > 100 µM | GI50 (K-562 leukemia) > 100 µM | GI50 (KM12 colon) > 100 µM | GI50 (LOX IMVI melanoma) > 100 µM | GI50 (M14 melanoma) > 100 µM | GI50 (MALME-3M melanoma) > 100 µM | GI50 (MCF7 breast) > 100 µM | GI50 (MDA-MB-231 breast) > 100 µM | GI50 (MDA-MB-435 melanoma) > 100 µM | GI50 (MDA-MB-468 breast) 34.4 µM | GI50 (MOLT-4 leukemia) > 100 µM | GI50 (NCI-H226 lung) > 100 µM | GI50 (NCI-H23 lung) > 100 µM | GI50 (NCI-H322M lung) > 100 µM | GI50 (NCI-H460 NSCLC) > 100 µM | GI50 (NCI-H522 lung) > 100 µM | GI50 (NCI/ADR-RES ovarian) > 100 µM | GI50 (OVCAR-3 ovarian) > 100 µM | GI50 (OVCAR-4 ovarian) 80.7 µM | GI50 (OVCAR-5 ovarian) > 100 µM | GI50 (OVCAR-8 ovarian) > 100 µM | GI50 (PC-3 prostate) > 100 µM | GI50 (RPMI-8226 leukemia) 91.4 µM | GI50 (RXF 393 renal) > 100 µM | GI50 (SF-268 CNS) > 100 µM | GI50 (SF-295 CNS) > 100 µM | GI50 (SF-539 CNS) > 100 µM | GI50 (SK-MEL-28 melanoma) > 100 µM | GI50 (SK-MEL-5 melanoma) > 100 µM | GI50 (SK-OV-3 ovarian) > 100 µM | GI50 (SN12C renal) > 100 µM | GI50 (SNB-19 CNS) > 100 µM | GI50 (SNB-75 CNS) > 100 µM | GI50 (SR leukemia) > 100 µM | GI50 (SW-620 colon) > 100 µM | GI50 (T-47D breast) 58.6 µM | GI50 (TK-10 renal) > 100 µM | GI50 (UACC-257 melanoma) > 100 µM | GI50 (UACC-62 melanoma) > 100 µM | GI50 (UO-31 renal) > 100 µM
